Data set [1] deals with conscious, telemetered rats. Format: in vivo, rat. The text has this:
The methods used were similar to those described in:
Brockway, B P, Mills, P A & Azar, S H (1991) A new method for continuous chronic measurement of blood pressure, heart rate and activity in the rat via radio-telemetry. Clinical and Experimental Hypertension—Theory and Practice A13(5), 885-895 and
Guiol, C, Ledoussal, C & Surgé, J-M (1992) A radiotelemetry system for chronic measurement of blood pressure and heart rate in the unrestrained rat. Validation of method. Journal of Pharmacological and Toxicological Methods 28, 99-105.
In brief, male rats (n=10) were implanted with a telemetry device for the measurement of arterial blood pressure and heart rate. Two weeks following implantation each animal received a single oral dose of vehicle, one dose of sibutramine or a combination of sibutramine and flesinoxan in a cross-over design. Measurements of blood pressure and heart rate were taken from each rat in sequence every three minutes for nine hours following drug administration and averaged into appropriate time-bins. Statistical comparisons were by the least significant difference or multiple t-test.
In FIGS. 1 and 2, shaded circles relate to the administration of vehicle alone p.o., shaded squares relate to the administration of sibutramine at 10 mg/kg p.o. and shaded triangles relate to the administration of sibutramine at 10 mg/kg p.o. together with flesinoxan at 30 mg/kg p.o. Statistical comparisons made by the least significant difference or multiple t-test are shown as *=p<0.05 versus vehicle and t=p<0.05 versus sibutramine.

The subject of a further data set is rats. Conditions: cited from earlier work.

Molecules are shown by their SMILES.

Regarding `CC(C)CC(N(C)C)C1(c2ccc(Cl)cc2)CCC1` (centres unmarked) [sibutramine, N-{1-[1-(4-chlorophenyl)cyclobutyl]-3-methylbutyl}-N,N-dimethylamine], the “mean arterial blood pressure” value in data set [1] (sibutramine 10 mg/kg p.o. alone, versus vehicle, conscious telemetered male rats, nine hours, FIG. 1) was “significant increase”. The heart rate entry in data set [1] (sibutramine 10 mg/kg p.o. alone, conscious telemetered rats, FIG. 2) is “increase in heart rate”.
As for `CCCN(CCC)C1CCc2cccc(O)c2C1` (centres unmarked) [8-OH-DPAT], the food intake entry with rats is listed as “increases food intake”.
For `O=C(NCCN1CCN(c2cccc3c2OC[C@H](CO)O3)CC1)c1ccc(F)cc1` [flesinoxan], in data set [1] (flesinoxan 30 mg/kg p.o. co-administered with sibutramine 10 mg/kg p.o., FIG. 1), the “effect on the increase in mean arterial blood pressure induced by sibutramine” value is recorded as “completely reversed”. In addition, in data set [1] (flesinoxan 30 mg/kg p.o. co-administered with sibutramine 10 mg/kg p.o., FIG. 2), the “effect on the increase in heart rate produced by sibutramine” value was “prevented the increase in heart rate”.

The record behind these values is US20030130355A1, “Therapeutic agents” (priority 2000, published 2003).
